Where two headings read alike, the source gives them in different places.
What was measured:
CK2α = CK2α (Homo sapiens, UniProt P68400); assay: ADP-Glo kinase assay, CK2 inhibition; format: biochemical; details: for inhibition at 256 µM: 256 μM compound; for inhibition at 1024 µM: 1024 μM compound, read-out: inhibition rate at 1024 μM
Procedure: In vitro CK2 kinase inhibition assay were carried out for the six compounds using ADP-Glo^TM kinase assay. […] As indicated in Table 1 and Figure 5a, these compounds presented the inhibitory effect on CK2α activity to different extent. At the concentration of 16 μM, compound 3 inhibited nearly 50% of CK2α activity. However, at the same concentration, other compounds had only 20% inhibitory activity. Furthermore, except compound 2 and 6, the inhibition rates of these compounds were about 70% and 30% at 256 μM, respectively, with the dose-dependent manner. The ADP-Glo^TM Kinase Assay (Promega, Madison, WI, USA) was used to test the CK2 inhibition effects of these compounds [30, 31]. As indicated by the relevant studies, competitive and noncompetitive inhibitors show the increased and similar IC50 values with increasing concentrations of ATP, respectively. Therefore, we were able to distinguish between ATP competitive and noncompetitive inhibitors of CK2 by exploring whether the IC50 value of inhibitors will change or not at 10 and 100 μM ATP. The kinase reaction was performed in 25 μL mixture containing 10 ng casein kinase 2α, 0.1 µg/μL casein protein, 10 µM or 100 µM ATP, 1× reaction buffer and serially diluted fragments (or DMSO for control). After 60 min incubation at room temperature, 25 μL of ADP-Glo^TM Reagent was added to terminate the kinase reaction and deplete the remaining ATP. Then 50 μL Kinase Detection Reagent was added to convert ADP to ATP within 30 min, and allow the newly synthesized ATP to produce a luminescence signal using luciferase/luciferin reaction, which was recorded by the luminescence panel of Microplate Reader (Enspire2300-001A, Perkin Elmer, Waltham, MA, USA).The luminescent signal is proportional to the ADP concentration produced and correlated with the kinase activity.

A549 cancer cells = assay: CCK-8 cell proliferation assay, A549; format: cell-based; details: Homo sapiens, A549, 48 h treatment, read-out: IC50, inhibition of A549 cell proliferation
Procedure: With the aim of investigating the anti-cancer cell proliferative activity of the CK2 inhibitors, compound 3 and 4 was tested against human cancer cell lines based on Cell Counting Kit-8 (CCK-8) assay. […] We presumed that the functional uracil group of two compounds, which is also presented in the anti-cancer hits 5-fluorouracil, is essential and indispensable for anti-cancer activity.
Cell Counting Kit-8 (CCK-8 Dojindo Laboratories, Kyushu, Japan) assays was used to assess the cytotoxic activities of compound 3 and 4. A549 and HeLa cancer cells were seeded in 96-well flat-bottom culture plate at 2 × 10^4 cells/well and then cultured in an incubator of 5% CO2 and 37 °C for 24 h. After cells adherence, the cells were treated with targeted compounds at various concentrations for 48 h. Blank wells (containing culture medium only) and negative wells (untreated cells) served as controls. Following, 10 μL CCK-8 solutions was add to each well and incubated for 2 h at 37 °C, the absorbance was measured at 450 nm by using a microplate reader (Enspire 2300-001A, Perkin Elmer, Waltham, MA, USA).

[1] = concentration-response, 10 μM ATP where stated, read-out: IC50 against CK2α

CK2α, sequence (P68400 whole entry): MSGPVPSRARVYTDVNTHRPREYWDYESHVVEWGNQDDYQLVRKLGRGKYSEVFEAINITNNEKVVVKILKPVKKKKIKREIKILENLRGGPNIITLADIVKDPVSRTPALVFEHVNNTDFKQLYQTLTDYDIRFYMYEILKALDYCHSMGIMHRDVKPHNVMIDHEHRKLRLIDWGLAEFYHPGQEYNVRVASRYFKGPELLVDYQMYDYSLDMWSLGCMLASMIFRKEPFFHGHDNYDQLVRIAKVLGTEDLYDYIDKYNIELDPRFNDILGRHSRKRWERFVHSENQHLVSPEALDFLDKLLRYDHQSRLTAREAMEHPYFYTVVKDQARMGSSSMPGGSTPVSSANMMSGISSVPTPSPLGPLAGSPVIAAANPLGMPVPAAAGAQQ

With `COc1ccc(C(=O)Nc2ccc(C(N)=O)cc2)cc1Br` [Compound 1] the inhibition at 16 µM (CK2α; 16 μM compound) was 14% and the inhibition at 256 µM (CK2α) was 27%.

In the case of `O=C(Cc1cccc2ccccc12)Nc1c[nH]c(=O)[nH]c1=O` [Compound 4], the inhibition at 16 µM (CK2α; 16 μM compound) is reported as 22%, the inhibition at 256 µM (CK2α) is reported as 40% and the IC50 (CK2α; [1]) is reported as at most 1020 µM. It also gave an IC50 (A549 cancer cells) of 8.8 µM.

`Nc1cc(=O)nc(SCc2ccccc2Cl)[nH]1` [Compound 6] showed an inhibition at 16 µM (CK2α; 16 μM compound) of 12%, an inhibition at 256 µM (CK2α) of 18% and an inhibition at 1024 µM (CK2α) of under 50%.

`COc1ccc(C(=O)Nc2ccc3[nH]c(=O)[nH]c3c2)cc1Br` [Compound 2] showed an inhibition at 16 µM (CK2α; 16 μM compound) of 16% and an inhibition at 256 µM (CK2α) of 19%.

For `Cc1ccc(C(=O)Nc2c[nH]c(=O)[nH]c2=O)cc1C` [Compound 3], the inhibition at 16 µM (CK2α; 16 μM compound) was about 50%, the “%Inhibition at 16 μM” value (CK2α; 16 μM compound, 16 µM) was 52% and the inhibition at 64 µM (CK2α; 64 μM compound) was over 50%. For the same molecule, the IC50 (CK2α; 100 μM ATP, read-out: IC50 against CK2α in the presence of 100 μM ATP) was 10.2 µM, the inhibition at 256 µM (CK2α) was 72% and the “mode of inhibition with respect to ATP” value (CK2α; IC50 compared at 10 μM and 100 μM ATP) was “non-ATP competitive”. For the same molecule, the IC50 (CK2α; [1]) was 13 µM and the IC50 (A549 cancer cells) was 23.1 µM.

Work on `Cc1c(Cl)cccc1NC(=O)CC1NCCNC1=O` (stereo not shown) [Compound 5] yielded an inhibition at 16 µM (CK2α; 16 μM compound) of 16%, an inhibition at 256 µM (CK2α) of 29% and an inhibition at 1024 µM (CK2α) of under 50%.

Source: article PMC6983002, “Identification and Biological Evaluation of CK2 Allosteric Fragments through Structure-Based Virtual Screening” (Molecules, 2020)
